Measurements reported in patent US9676820B2, “Method for inhibiting proliferation of high LIX1L-expressing tumor cell, and tumor cell proliferation-inhibiting peptide” (National University Corporation Hamamatsu University School …, priority 2013, dated 2017).
Entries after “also recorded” stand apart in the source; their conditions may differ.

Assays:
Format in all cases: cell-based
[1] = tested on: MKN45 strain; experiment: MTT assay, MKN45 strain
Description: (§1) Specifically, first, cells plated in a 96-well microplate such that the density thereof became 5×10^3 cells/well were cultured for one night in a culture solution having the same composition as those in the reference examples. […] After the culturing, an MTT-containing PBS solution was added to the culture solution, and the mixture was incubated for 4 hours. Then, formazan which was generated by putting 100 μL of isopropanol (containing 34 (v/v) % of hydrochloric acid) into each of the wells was dissolved. The absorbance of each of the wells of the microplate at 570 nm was measured using a microplate reader. As controls, culturing was performed in the same manner except that no peptide was added to the strains, an MTT assay was performed thereon, and the absorbance at 570 nm was measured (untreated).
(§2) In the method for measuring the viable cell counts, cells were cultured for 3 days similarly to Example 1 except that a 25 μM (10 μM for an HL-60 strain, a K562 strain, and a U937 strain) culture solution containing a control peptide or a peptide 1 was used, and the viable cell counts were measured. As a comparison, culturing was performed similarly to the above using a culture solution containing no peptide, and the viable cell counts were measured (untreated).
(§3) In addition, in the method for performing an MTT assay, cells were cultured for 72 hours similarly to Example 2 except that a peptide to be added to a strain was set to a control peptide or a peptide 1 at 25 μM (10 μM for an HL-60 strain, a K562 strain, and a U937 strain), an MTT assay was performed thereon, and the absorbance at 570 nm was measured. As a comparison, culturing was performed similarly to the above using a culture solution containing no peptide, and the MTT assay was performed thereon (untreated).
(§4) Specifically, the cells were cultured for 72 hours similarly to Example 2 except that a peptide to be added to a cell was set to a peptide 1, 2, 5, or 6, MTT assays were performed thereon, and the absorbance at 570 nm was measured. As a comparison, culturing was performed similarly to the above using a culture solution containing no peptide, and the MTT assay was performed thereon (untreated).
(§5) Specifically, the cells were cultured for 72 hours similarly to Example 2 except that peptides to be added to cell strains were set to peptides 7 to 14, MTT assays were performed thereon, and the absorbance at 570 nm was measured. […]
(§6) Specifically, the cells were cultured for 72 hours similarly to Example 2 except that a peptide to be added to a cell strain was set to a peptide 15 or 16, an MTT assay was performed thereon, and the absorbance at 570 nm was measured. […]

[2] = tested on: RPMI8226 strain; experiment: MTT assay, RPMI8226 strain; conditions: peptide 0 μM to 100 μM, 72 hours
Description: (§7) Specifically, first, cells plated in a 96-well microplate such that the density thereof became 5×10^3 cells/well were cultured for one night in a culture solution having the same composition as those in the reference examples. Thereafter, the culture solution was exchanged with 100 μL of a culture solution of which the concentration of peptides is 0 μM to 100 μM for culturing for 72 hours. After the culturing, an MTT-containing PBS solution was added to the culture solution, and the mixture was incubated for 4 hours. Then, formazan which was generated by putting 100 μL of isopropanol (containing 34 (v/v) % of hydrochloric acid) into each of the wells was dissolved. The absorbance of each of the wells of the microplate at 570 nm was measured using a microplate reader. As controls, culturing was performed in the same manner except that no peptide was added to the strains, an MTT assay was performed thereon, and the absorbance at 570 nm was measured (untreated).
(§8) Specifically, the cells were cultured for 72 hours similarly to Example 2 except that a peptide to be added to a cell strain was set to peptide 1, 3, or 4, or a control peptide, an MTT assay was performed thereon, and the absorbance at 570 nm was measured.

[3] = tested on: HL-60 strain; experiment: MTT assay, HL-60 strain
Description: as §7, §2, §3

[4] = tested on: NUGC-4 strain; experiment: MTT assay, NUGC-4 strain
Description: as §1, §2, §3, §4, §5, §6

[5] = tested on: KATO-III strain; experiment: MTT assay, KATO-III strain; conditions: MTT assay, 72 hours
Description: as §7

[6] = molecular target: T1, 136th tyrosine of LIX1L (Homo sapiens, UniProt Q8IVB5); experiment: Tyrosine phosphorylation of LIX1L by immunoprecipitation and Western blotting in 293 FLG/LIX1L cells; conditions: cultured 14 days with peptide
T1 construct: expressed in transfected cells
T1 sequence (Q8IVB5 with tags, fused parts or gaps): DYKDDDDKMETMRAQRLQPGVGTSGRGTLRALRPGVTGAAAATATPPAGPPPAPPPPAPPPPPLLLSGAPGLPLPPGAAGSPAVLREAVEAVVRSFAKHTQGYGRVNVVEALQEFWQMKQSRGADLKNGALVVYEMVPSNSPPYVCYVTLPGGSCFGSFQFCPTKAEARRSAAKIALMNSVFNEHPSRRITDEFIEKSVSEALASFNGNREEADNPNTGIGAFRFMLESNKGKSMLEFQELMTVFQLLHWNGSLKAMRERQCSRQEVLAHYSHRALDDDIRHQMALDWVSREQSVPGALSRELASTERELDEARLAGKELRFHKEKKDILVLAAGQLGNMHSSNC
Description: First, a cell strain (293 FLG) in which only FLAG was forcibly expressed, a cell strain (293 FLG/LIX1L) in which a LIX1L protein with a FLAG tag was forcibly expressed, and a cell strain (293 FLG/LIX1L/PY136) in which a LIX1L protein with a FLAG tag for adding a peptide thereto was forcibly expressed were prepared through the same method as Reference Example 5, and were cultured and proliferated.
Next, the 293 FLG/LIX1L/PY136 cells were cultured for 14 days in a culture solution containing a peptide 1 through the same method as that in Example 3. The 293 FLG cells and the 293 FLG/LIX1L cells were cultured for 14 days in the same manner as above using a culture solution containing no peptide 1.
Next, the 293 FLG cells, the 293 FLG/LIX1L cells, and the 293 FLG/LIX1L/PY136 cells were respectively cultured in 10% FCS-containing DMEM culture media to which Hygromycin B at […] was added, for 14 days. Then, the cultured cells were separated into nuclear fractions and cytoplasm fractions using Nuclear/Cytosol Fractionation Kit (manufactured by BioVison, Inc.). Immunoprecipitation was performed on both the obtained fractions using an anti-FLAG antibody (manufactured by Sigma-Aldorich Co. LLC.) and an agarose-binding protein A (manufactured by Sigma-Aldorich Co. LLC.), protein separation was performed thereon through 12% SDS-PAGE, and the fractions were transferred to a film. […]

[7] = tested on: K562 strain; experiment: MTT assay, K562 strain
Description: as §7, §8, §2, §3, §4
Specifically, the cells were cultured for 72 hours similarly to Example 2 except that peptides to be added to cell strains were set to peptides 7 to 14, MTT assays were performed thereon, and the absorbance at 570 nm was measured. As a comparison, culturing was performed similarly to the above using a culture solution containing no peptide, and the MTT assay was performed thereon (untreated).
Specifically, the cells were cultured for 72 hours similarly to Example 2 except that a peptide to be added to a cell strain was set to a peptide 15 or 16, an MTT assay was performed thereon, and the absorbance at 570 nm was measured. As a comparison, culturing was performed similarly to the above using a culture solution containing no peptide, and the MTT assay was performed thereon (untreated).

[8] = 72 hours, peptide concentrations up to 250 μM
[9] = peptide 25 μM, 3 days / 72 hours
[10] = peptide 10 μM, 3 days / 72 hours

For `CC(C)[C@H](NC(=O)[C@H](Cc1ccc(O)cc1)NC(=O)[C@H](CS)NC(=O)[C@@H](NC(=O)[C@H](Cc1ccc(O)cc1)NC(=O)[C@@H]1CCCN1C(=O)[C@@H]1CCCN1C(=O)[C@H](CO)NC(=O)[C@H](CC(N)=O)NC(=O)[C@H](CO)NC(=O)[C@@H]1CCCN1C(=O)CCCCCNC(=O)[C@H](CCCNC(=N)N)NC(=O)[C@H](CCCNC(=N)N)NC(=O)[C@H](CCCNC(=N)N)NC(=O)[C@H](CCC(N)=O)NC(=O)[C@H](CCCNC(=N)N)NC(=O)[C@H](CCCNC(=N)N)NC(=O)[C@H](CCCCN)NC(=O)[C@H](CCCCN)NC(=O)[C@H](CCCNC(=N)N)NC(=O)CNC(=O)[C@@H](N)Cc1ccc(O)cc1)C(C)C)C(N)=O` [peptide 1, YGRKKRRQRRR-X-PSNSPPYVCYV-NH2], the “cell proliferation (MTT assay, absorbance at 570 nm)” value [1, 8] was “inhibited”, the “cell proliferation (viable cell counts and MTT assay)” value [1, 9] was “inhibited” and the “absorbance at 570 nm (MTT assay), influence on cell proliferation” value [2] was “no effect of inhibiting the cell proliferation; also recorded: not inhibited”. For the same compound, the “concentration at which a dominant effect of inhibiting the cell proliferation was recognized” value ([3]; MTT assay, 72 hours) was “greater than or equal to 6.25 μM”, the “cell proliferation (viable cell counts and MTT assay)” value [3, 10] was “inhibited” and the “cell proliferation (MTT assay, absorbance at 570 nm)” value [4, 8] was “inhibited”. The “cell proliferation (viable cell counts and MTT assay)” value [4, 9] was “not inhibited”, the “concentration at which a dominant effect of inhibiting the cell proliferation was recognized” value [5] was “greater than or equal to 25 μM” and the “phosphorylation of the 136th tyrosine of LIX1L” value ([6]; cytoplasm fraction of 293 FLG/LIX1L/PY136 cell) was “significantly inhibited”. For the same compound, the “phosphorylation of the 136th tyrosine of LIX1L” value ([6]; nuclear fraction of 293 FLG/LIX1L/PY136 cell) was “slightly inhibited”, the “cell proliferation (MTT assay, absorbance at 570 nm)” value [7, 8] was “inhibited” and the “concentration at which a dominant effect of inhibiting the cell proliferation was recognized” value ([7]; MTT assay, 72 hours) was “greater than or equal to 6.25 μM”. The “absorbance at 570 nm (MTT assay), influence on cell proliferation” value ([7]; peptide 0 μM to 100 μM, 72 hours) was “inhibited” and the “cell proliferation (viable cell counts and MTT assay)” value [7, 10] was “inhibited”.
